From PMC5218480 (PLoS ONE, 2017)

Test system: MV-4-11 cells
Assay: Gene expression microarray analysis (Affymetrix PrimeView) and GSEA
Assay type: cell-based, human
Parameters: RFU PODN (11730768_x_at) / Fold change /veh PODN (11730768_x_at) / RFU LINC00158 (11744669_a_at) / Fold change /veh LINC00158 (11744669_a_at) / RFU DUSP10 (11751237_a_at) / Fold change /veh DUSP10 (11751237_a_at) / RFU ID3 (11757404_x_at) / Fold change /veh ID3 (11757404_x_at) / RFU PLEKHG5 (11737974_s_at) / Fold change /veh PLEKHG5 (11737974_s_at) / RFU LRRC4B (11730491_at) / Fold change /veh LRRC4B (11730491_at) / RFU GIMAP4 (11747438_a_at) / Fold change /veh GIMAP4 (11747438_a_at) / RFU KRT8 (11758183_x_at) / Fold change /veh KRT8 (11758183_x_at) / RFU CNN1 (11734310_a_at) / Fold change /veh CNN1 (11734310_a_at) / RFU VPS37D (11726825_at) / Fold change /veh VPS37D (11726825_at) / RFU C10orf10 (11716522_x_at) / Fold change /veh C10orf10 (11716522_x_at) / RFU KIR2DL2 /// KIR2DL4 /// KIR2DL5A /// KIR2DL5B /// KIR2DS1 /// KIR2DS2 /// KIR2DS3 /// KIR2DS4 /// KIR3DL3 /// KIR3DL3 /// KIR3DS1 (11738374_at) / Fold change /veh KIR2DL2 /// KIR2DL4 /// KIR2DL5A /// KIR2DL5B /// KIR2DS1 /// KIR2DS2 /// KIR2DS3 /// KIR2DS4 /// KIR3DL3 /// KIR3DL3 /// KIR3DS1 (11738374_at) / RFU C1QL1 (11718748_at) / Fold change /veh C1QL1 (11718748_at) / RFU TMPRSS4 (11747572_a_at) / Fold change /veh TMPRSS4 (11747572_a_at) / RFU HAMP (11756126_x_at) / Fold change /veh HAMP (11756126_x_at) / RFU RNFT2 (11725882_a_at) / Fold change /veh RNFT2 (11725882_a_at) / RFU NR4A2 (11747474_a_at) / Fold change /veh NR4A2 (11747474_a_at) / RFU ABCC12 (11746883_a_at) / Fold change /veh ABCC12 (11746883_a_at) / RFU TMEM136 (11760407_x_at) / Fold change /veh TMEM136 (11760407_x_at) / RFU CLDN22 /// WWC2 (11732394_at) / Fold change /veh CLDN22 /// WWC2 (11732394_at) / RFU HLA-DPB1 (11760878_x_at) / Fold change /veh HLA-DPB1 (11760878_x_at) / RFU SPINT1 (11716480_a_at) / Fold change /veh SPINT1 (11716480_a_at) / RFU GAP43 (11754022_s_at) / Fold change /veh GAP43 (11754022_s_at) / RFU A4GNT (11735810_at) / Fold change /veh A4GNT (11735810_at) / RFU PRB3 (11715151_x_at) / Fold change /veh PRB3 (11715151_x_at) / RFU TUBB4B (11761932_at) / Fold change /veh TUBB4B (11761932_at) / RFU CAPN14 (11732068_a_at) / Fold change /veh CAPN14 (11732068_a_at) / RFU TMCC2 (11721928_a_at) / Fold change /veh TMCC2 (11721928_a_at) / RFU IRGQ (11745062_a_at) / Fold change /veh IRGQ (11745062_a_at) / RFU FAM174B (11720279_a_at) / Fold change /veh FAM174B (11720279_a_at) / RFU TMPRSS4 (11748680_a_at) / Fold change /veh TMPRSS4 (11748680_a_at) / RFU FAM212B (11763350_a_at) / Fold change /veh FAM212B (11763350_a_at) / RFU PLEKHG5 (11743358_a_at) / Fold change /veh PLEKHG5 (11743358_a_at) / RFU ZSCAN30 (11745921_a_at) / Fold change /veh ZSCAN30 (11745921_a_at) / RFU CMKLR1 (11741424_a_at) / Fold change /veh CMKLR1 (11741424_a_at) / RFU LOC101060620 /// MAPK8IP1 (11723275_at) / Fold change /veh LOC101060620 /// MAPK8IP1 (11723275_at) / RFU SPTSSB (11747773_x_at) / Fold change /veh SPTSSB (11747773_x_at) / RFU PRSS12 (11739890_at) / Fold change /veh PRSS12 (11739890_at) / RFU BIN1 (11741810_x_at) / Fold change /veh BIN1 (11741810_x_at) / RFU WNT11 (11732464_a_at) / Fold change /veh WNT11 (11732464_a_at) / RFU C10orf10 (11716521_a_at) / Fold change /veh C10orf10 (11716521_a_at) / RFU C5orf56 (11738089_at) / Fold change /veh C5orf56 (11738089_at) / RFU CYB561 (11721691_x_at) / Fold change /veh CYB561 (11721691_x_at) / RFU ANKRD19P (11752326_a_at) / Fold change /veh ANKRD19P (11752326_a_at) / RFU OR2T12 /// OR2T33 /// OR2T8 (11738714_s_at) / Fold change /veh OR2T12 /// OR2T33 /// OR2T8 (11738714_s_at) / RFU VCAN (11748164_a_at) / Fold change /veh VCAN (11748164_a_at) / RFU JSRP1 (11732532_at) / Fold change /veh JSRP1 (11732532_at) / RFU KRTAP10-11 (11738290_x_at) / Fold change /veh KRTAP10-11 (11738290_x_at) / RFU MYO3A (11730013_a_at) / Fold change /veh MYO3A (11730013_a_at) / RFU EBF3 (11725865_a_at) / Fold change /veh EBF3 (11725865_a_at) / RFU CAMK2N1 (11719241_x_at) / Fold change /veh CAMK2N1 (11719241_x_at) / RFU C5orf56 (11738088_a_at) / Fold change /veh C5orf56 (11738088_a_at) / RFU OLFML3 (11715873_a_at) / Fold change /veh OLFML3 (11715873_a_at) / RFU LOC100653217 /// NTM (11731650_a_at) / Fold change /veh LOC100653217 /// NTM (11731650_a_at) / RFU MAPK11 (11762145_a_at) / Fold change /veh MAPK11 (11762145_a_at) / RFU FIZ1 (11724087_x_at) / Fold change /veh FIZ1 (11724087_x_at) / RFU OASL (11726364_x_at) / Fold change /veh OASL (11726364_x_at) / RFU SOX15 (11748057_x_at) / Fold change /veh SOX15 (11748057_x_at) / RFU CD79A (11719716_a_at) / Fold change /veh CD79A (11719716_a_at) / RFU HIST1H1D (11736915_at) / Fold change /veh HIST1H1D (11736915_at) / RFU CASKIN2 (11723855_a_at) / Fold change /veh CASKIN2 (11723855_a_at) / RFU LOC730098 (11760151_x_at) / Fold change /veh LOC730098 (11760151_x_at) / RFU OR4N2 (11742367_at) / Fold change /veh OR4N2 (11742367_at) / RFU PRRT2 (11749266_a_at) / Fold change /veh PRRT2 (11749266_a_at) / RFU SNX32 (11753110_a_at) / Fold change /veh SNX32 (11753110_a_at) / RFU CDHR5 (11726645_a_at) / Fold change /veh CDHR5 (11726645_a_at) / RFU RCAN1 (11760418_a_at) / Fold change /veh RCAN1 (11760418_a_at) / RFU FAM167A (11723789_a_at) / Fold change /veh FAM167A (11723789_a_at) / RFU FAM26E (11764081_at) / Fold change /veh FAM26E (11764081_at) / RFU ISYNA1 (11749810_s_at) / Fold change /veh ISYNA1 (11749810_s_at) / RFU ACY1 (11761880_at) / Fold change /veh ACY1 (11761880_at) / RFU 11764098_at / Fold change /veh 11764098_at / RFU SAMD14 (11745864_x_at) / Fold change /veh SAMD14 (11745864_x_at) / RFU NPB (11741838_a_at) / Fold change /veh NPB (11741838_a_at) / RFU TMPRSS6 (11731388_a_at) / Fold change /veh TMPRSS6 (11731388_a_at) / RFU KRTAP10-2 (11738614_at) / Fold change /veh KRTAP10-2 (11738614_at) / RFU ARHGAP8 /// PRR5-ARHGAP8 (11727945_x_at) / Fold change /veh ARHGAP8 /// PRR5-ARHGAP8 (11727945_x_at) / RFU KRTAP5-7 /// NADSYN1 (11734609_at) / Fold change /veh KRTAP5-7 /// NADSYN1 (11734609_at) / RFU RASL12 (11751679_a_at) / Fold change /veh RASL12 (11751679_a_at) / RFU CDKN2B (11736163_a_at) / Fold change /veh CDKN2B (11736163_a_at) / RFU PRF1 (11729649_at) / Fold change /veh PRF1 (11729649_at) / RFU, ZNF638 /// ZNF638-IT1 / Fold change vs veh, ZNF638 /// ZNF638-IT1 / RFU, PANK3 / Fold change vs veh, PANK3 / RFU, SH3YL1 / Fold change vs veh, SH3YL1 / RFU, ZEB2 / Fold change vs veh, ZEB2 / RFU, NRIP1 / Fold change vs veh, NRIP1 / RFU, PTTG1IP / Fold change vs veh, PTTG1IP / RFU, CAPN2 / Fold change vs veh, CAPN2 / RFU, MED14 / Fold change vs veh, MED14 / RFU, SNORA58 / Fold change vs veh, SNORA58 / RFU, C1orf63 / Fold change vs veh, C1orf63 / RFU, LRRFIP1 / Fold change vs veh, LRRFIP1 / RFU, NDUFAF7 / Fold change vs veh, NDUFAF7 / RFU, SLC12A2 / Fold change vs veh, SLC12A2 / RFU, IBTK / Fold change vs veh, IBTK / RFU, ESF1 / Fold change vs veh, ESF1 / Fold change vs veh, TMEM50B / RFU, TAOK1 / Fold change vs veh, TAOK1 / RFU, ACBD3 / Fold change vs veh, ACBD3 / RFU, TMA16 / Fold change vs veh, TMA16 / RFU, RWDD3 / Fold change vs veh, RWDD3 / RFU, BCAT1 / Fold change vs veh, BCAT1 / RFU, EDEM3 / Fold change vs veh, EDEM3 / RFU, TMEM33 / Fold change vs veh, TMEM33 / RFU, WDR75 / Fold change vs veh, WDR75 / RFU, AHCTF1 / Fold change vs veh, AHCTF1 / RFU, TFRC / Fold change vs veh, TFRC / RFU, ZDHHC17 / Fold change vs veh, ZDHHC17 / RFU, NOM1 / Fold change vs veh, NOM1 / RFU, ARL8B / Fold change vs veh, ARL8B / RFU, ZBTB11 / Fold change vs veh, ZBTB11 / RFU, TAMM41 / Fold change vs veh, TAMM41 / RFU, KIAA1704 /// LOC100996395 / Fold change vs veh, KIAA1704 /// LOC100996395 / RFU, ING1 / Fold change vs veh, ING1 / RFU, TRMT61B / Fold change vs veh, TRMT61B / RFU, FUBP3 / Fold change vs veh, FUBP3 / RFU, TP53 / Fold change vs veh, TP53 / RFU, TNKS2 / Fold change vs veh, TNKS2 / RFU, ZFP14 / Fold change vs veh, ZFP14 / RFU, ACTR2 / Fold change vs veh, ACTR2 / RFU, PPP3R1 / Fold change vs veh, PPP3R1 / RFU, PIK3R1 / Fold change vs veh, PIK3R1 / RFU, HNRNPA1 / Fold change vs veh, HNRNPA1 / RFU, RNF170 / Fold change vs veh, RNF170 / RFU, ZNF28 / Fold change vs veh, ZNF28 / RFU, RNGTT / Fold change vs veh, RNGTT / RFU, OGT / Fold change vs veh, OGT / RFU, BRD1 / Fold change vs veh, BRD1 / RFU, MARS / Fold change vs veh, MARS / RFU, ZNF655 / Fold change vs veh, ZNF655 / RFU, FAHD1 / Fold change vs veh, FAHD1 / RFU, BDP1 / Fold change vs veh, BDP1 / RFU, LRRCC1 / Fold change vs veh, LRRCC1 / RFU, ARID1A / Fold change vs veh, ARID1A / RFU, ZNF146 / Fold change vs veh, ZNF146 / RFU, ZNF330 / Fold change vs veh, ZNF330 / RFU, GPN3 / Fold change vs veh, GPN3 / RFU, C9orf123 / Fold change vs veh, C9orf123 / RFU, N4BP2L2 / Fold change vs veh, N4BP2L2 / RFU, ARFIP1 / Fold change vs veh, ARFIP1 / RFU, FAM179B / Fold change vs veh, FAM179B / RFU, BCL10 / Fold change vs veh, BCL10 / RFU, UHRF1BP1L / Fold change vs veh, UHRF1BP1L / RFU, BET1 / Fold change vs veh, BET1 / RFU, CNOT2 / Fold change vs veh, CNOT2 / RFU, ZNF268 / Fold change vs veh, ZNF268 / Fold change vs veh, ZNF507 / RFU, DGCR2 / Fold change vs veh, DGCR2 / RFU, WDSUB1 / Fold change vs veh, WDSUB1 / Fold change vs veh, HSP90B1 /// MIR3652 / RFU, ADSS / Fold change vs veh, ADSS / RFU, GK / Fold change vs veh, GK / RFU, ZNF148 / Fold change vs veh, ZNF148 / RFU, TAF9 / Fold change vs veh, TAF9 / RFU, SLC1A5 / Fold change vs veh, SLC1A5 / RFU, SLMO2 / Fold change vs veh, SLMO2 / RFU, ABCC4 / Fold change vs veh, ABCC4 / RFU, LOC101060439 /// RAP1B / Fold change vs veh, LOC101060439 /// RAP1B / RFU, RFX7 / Fold change vs veh, RFX7 / RFU, GTPBP10 / Fold change vs veh, GTPBP10 / RFU, CNEP1R1 / Fold change vs veh, CNEP1R1 / RFU, BIVM-ERCC5 /// ERCC5 / Fold change vs veh, BIVM-ERCC5 /// ERCC5 / RFU, ILF3 / Fold change vs veh, ILF3 / RFU 11762660_at / Fold change /veh 11762660_at / RFU VCAN (11757783_s_at) / Fold change /veh VCAN (11757783_s_at) / RFU DDX43 (11728927_at) / Fold change /veh DDX43 (11728927_at) / RFU KRT8 (11758188_x_at) / Fold change /veh KRT8 (11758188_x_at) / RFU NKD1 (11759106_at) / Fold change /veh NKD1 (11759106_at) / RFU SRD5A1 (11742802_a_at) / Fold change /veh SRD5A1 (11742802_a_at) / RFU TPSAB1 /// TPSB2 (11721975_s_at) / Fold change /veh TPSAB1 /// TPSB2 (11721975_s_at) / RFU GSTM3 (11746129_a_at) / Fold change /veh GSTM3 (11746129_a_at) / RFU IL23R (11737362_x_at) / Fold change /veh IL23R (11737362_x_at) / RFU TMEM51 (11727254_a_at) / Fold change /veh TMEM51 (11727254_a_at) / RFU PIWIL2 (11732686_x_at) / Fold change /veh PIWIL2 (11732686_x_at) / RFU ORM1 (11744905_x_at) / Fold change /veh ORM1 (11744905_x_at) / RFU CCDC152 (11743942_at) / Fold change /veh CCDC152 (11743942_at) / RFU ECM1 (11717891_a_at) / Fold change /veh ECM1 (11717891_a_at) / RFU IL23R (11748794_a_at) / Fold change /veh IL23R (11748794_a_at) / RFU TNFAIP8L3 (11732012_x_at) / Fold change /veh TNFAIP8L3 (11732012_x_at) / RFU MBOAT4 (11741988_at) / Fold change /veh MBOAT4 (11741988_at) / RFU 11764193_at / Fold change /veh 11764193_at / RFU TMEM53 (11763286_at) / Fold change /veh TMEM53 (11763286_at) / RFU MAGEB2 (11727129_at) / Fold change /veh MAGEB2 (11727129_at) / RFU TMEM200A (11744735_a_at) / Fold change /veh TMEM200A (11744735_a_at) / RFU CCDC152 (11751479_a_at) / Fold change /veh CCDC152 (11751479_a_at) / RFU FAM211A (11726209_a_at) / Fold change /veh FAM211A (11726209_a_at) / RFU RGS16 (11746705_a_at) / Fold change /veh RGS16 (11746705_a_at) / RFU VCAN (11755009_s_at) / Fold change /veh VCAN (11755009_s_at) / RFU RHOB (11743442_s_at) / Fold change /veh RHOB (11743442_s_at) / RFU RGS16 (11720943_a_at) / Fold change /veh RGS16 (11720943_a_at) / RFU RGS16 (11720944_at) / Fold change /veh RGS16 (11720944_at) / RFU, VPS4B / Fold change vs veh, VPS4B / RFU, CREB1 / Fold change vs veh, CREB1 / RFU, DNAJC13 / Fold change vs veh, DNAJC13 / RFU, GNAQ / Fold change vs veh, GNAQ / RFU, CDK5R1 / Fold change vs veh, CDK5R1 / RFU, ZRANB3 / Fold change vs veh, ZRANB3 / RFU, CUL4A / Fold change vs veh, CUL4A / RFU, CCNY / Fold change vs veh, CCNY / RFU, UFL1 / Fold change vs veh, UFL1 / RFU, COG3 / Fold change vs veh, COG3 / RFU, DIAPH2 / Fold change vs veh, DIAPH2 / RFU, SKA2 / Fold change vs veh, SKA2 / RFU, AFF3 / Fold change vs veh, AFF3 / RFU, LMF1 / Fold change vs veh, LMF1 / RFU, IPO11 / Fold change vs veh, IPO11 / RFU, DFFB / Fold change vs veh, DFFB / RFU, FOXP1 / Fold change vs veh, FOXP1 / RFU, CARD8 / Fold change vs veh, CARD8 / RFU, STRN3 / Fold change vs veh, STRN3 / RFU, ADK / Fold change vs veh, ADK / RFU, RASSF2 / Fold change vs veh, RASSF2 / RFU, WIPF1 / Fold change vs veh, WIPF1 / RFU, LARP1B / Fold change vs veh, LARP1B / RFU, RASA1 / Fold change vs veh, RASA1 / RFU, RB1 / Fold change vs veh, RB1 / RFU, PPFIA1 / Fold change vs veh, PPFIA1 / RFU, MAT2A / Fold change vs veh, MAT2A / RFU, CCT5 / Fold change vs veh, CCT5 / RFU, WDR92 / Fold change vs veh, WDR92 / RFU, CUX1 / Fold change vs veh, CUX1 / RFU, TTC7A / Fold change vs veh, TTC7A / RFU, TMEM135 / Fold change vs veh, TMEM135 / RFU, DEPTOR / Fold change vs veh, DEPTOR / RFU, CPM / Fold change vs veh, CPM / RFU, DNAJB6 / Fold change vs veh, DNAJB6 / RFU, CACNA2D3 / Fold change vs veh, CACNA2D3 / RFU, DTX4 / Fold change vs veh, DTX4 / RFU, TFCP2 / Fold change vs veh, TFCP2 / RFU, GMCL1 /// GMCL1P1 / Fold change vs veh, GMCL1 /// GMCL1P1 / RFU, AEBP2 / Fold change vs veh, AEBP2 / RFU, SNHG1 /// SNORD22 /// SNORD25 /// SNORD26 /// SNORD27 /// SNORD28 /// SNORD29 /// SNORD31 / Fold change vs veh, SNHG1 /// SNORD22 /// SNORD25 /// SNORD26 /// SNORD27 /// SNORD28 /// SNORD29 /// SNORD31 / Fold change (Aza/veh), C12orf56 (ProbeSet 11735607_a_at) / Fold change (ACY-1035/veh), C12orf56 (ProbeSet 11735607_a_at) / Fold change (Aza/veh), FGFR1OP (ProbeSet 11751329_s_at) / Fold change (ACY-1035/veh), FGFR1OP (ProbeSet 11751329_s_at) / Fold change (Aza/veh), VPS36 (ProbeSet 11739960_a_at) / Fold change (ACY-1035/veh), VPS36 (ProbeSet 11739960_a_at) / RFU SYPL1 (11715823_x_at) / Fold change /veh SYPL1 (11715823_x_at) / RFU IGFBP7 (11715501_s_at) / Fold change /veh IGFBP7 (11715501_s_at) / RFU REEP3 (11722064_at) / Fold change /veh REEP3 (11722064_at) / RFU IGLL1 (11728026_x_at) / Fold change /veh IGLL1 (11728026_x_at): dose or concentration left out as unconfirmed
Settings: MV-4-11 cells, 48 hours

Compound: Nc1ccc(-c2cccs2)cc1NC(=O)c1ccc2c(c1)cc(C1CC1)n2CCN1CCOCC1 [ACY-1035]
- Fold change /veh CYB561 (11721691_x_at): 0.97
